Columns and labels:
Assay type in all cases: biochemical
activated IR = target: T1, activated IR (Homo sapiens, UniProt P06213); test: In vitro IR enzymatic assay (ADP-Glo); details: ATP 50 μM
T1 construct: purchased Millipore 14-803
Experimental: (§1) Inhibition of IGF-1R and IR kinases by compounds described herein were tested. The IC50 values were measured in vitro using an ADP-Glo kinase assay Kit (Promega). For the IGF-1R assay, active recombinant IGF-1R (Millipore #14-802) was used at 1 ng/reaction, the substrate IGF-1R tide (Millipore #12-527) was used at 125 μM and ATP was used at 100 μM. For the IR assay, active recombinant IR (Millipore #14-803) was used at 1 ng/reaction, the substrate Axl tide (Millipore #12-516) was used at 125 μM and ATP at 50 μM. Kinase reactions in both assays were conducted at 30° C. for 20 min with increasing concentrations of the test compounds.
(§2) The assay results as the percent inhibition of binding are presented in Tables B2 and B3 for IGF-1R and IR respectively.

FLT3 = target: T2, FLT3 (Homo sapiens, UniProt P36888); test: HotSpot kinase assay against FLT3; details: HotSpot 33P assay, ATP 10 μM
T2 sequence (P36888 27-993): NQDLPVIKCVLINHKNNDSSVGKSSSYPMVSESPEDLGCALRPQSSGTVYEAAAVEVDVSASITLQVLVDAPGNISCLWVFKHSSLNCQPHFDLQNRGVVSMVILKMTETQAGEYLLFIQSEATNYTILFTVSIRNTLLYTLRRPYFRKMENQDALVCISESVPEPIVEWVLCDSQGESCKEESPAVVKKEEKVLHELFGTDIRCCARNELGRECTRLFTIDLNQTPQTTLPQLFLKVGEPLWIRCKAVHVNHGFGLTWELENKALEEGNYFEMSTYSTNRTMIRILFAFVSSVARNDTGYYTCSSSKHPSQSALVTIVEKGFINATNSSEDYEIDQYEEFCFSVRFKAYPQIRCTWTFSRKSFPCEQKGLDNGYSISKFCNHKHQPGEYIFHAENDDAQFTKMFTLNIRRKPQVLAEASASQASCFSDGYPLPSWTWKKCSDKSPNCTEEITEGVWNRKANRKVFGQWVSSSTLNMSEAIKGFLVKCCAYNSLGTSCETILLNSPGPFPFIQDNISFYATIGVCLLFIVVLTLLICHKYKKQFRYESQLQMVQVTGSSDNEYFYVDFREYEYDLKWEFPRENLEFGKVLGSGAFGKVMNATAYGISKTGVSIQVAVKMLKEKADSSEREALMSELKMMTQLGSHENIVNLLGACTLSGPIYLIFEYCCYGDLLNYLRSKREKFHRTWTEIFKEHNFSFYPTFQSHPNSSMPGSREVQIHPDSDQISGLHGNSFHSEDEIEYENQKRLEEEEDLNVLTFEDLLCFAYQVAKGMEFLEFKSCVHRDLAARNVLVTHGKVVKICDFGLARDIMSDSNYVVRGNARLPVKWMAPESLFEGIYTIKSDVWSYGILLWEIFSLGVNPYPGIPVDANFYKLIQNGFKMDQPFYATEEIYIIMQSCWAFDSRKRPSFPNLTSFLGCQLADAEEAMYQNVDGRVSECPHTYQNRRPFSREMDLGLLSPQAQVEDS
Experimental: Kinase assays were performed using test compounds against a panel of FLT3 kinases: FLT3; FLT3 (D835Y); and FLT3 (ITD). Compounds were prepared as 10 mM stock solutions in DMSO prior to use in the assay. Each compound was tested at 10 concentrations with three-fold serial dilution starting at 1 μM against the three kinases. The control compound, staurosporine, was tested at 10 concentrations with four-fold serial dilution starting at 20 μM. IC50 values and curve fits were obtained using Prism (GraphPad Software). The screening was performed using the “HotSpot” assay platform. The assay measures the conversion of a peptide substrate to ^33P-labelled phosphorylated product. Briefly, specific kinase/substrate pairs along with required cofactors were prepared in reaction buffer. Specifically, the substrate was prepared in reaction buffer (20 mM Hepes, pH 7.5; 10 mM MgCl2; 1 mM EGTA; 0.02% Brij35; 0.02 mg/mL BSA; 0.1 mM Na3VO4; 2 mM DTT; 1% DMSO), followed by delivery of any required cofactor to the resulting substrate solution. The corresponding kinase was delivered into the substrate solution and the reaction mixture was mixed gently. Compound was delivered into the reaction mixture, followed 15-20 min later by addition of a mixture of ATP (Sigma, St. Louis Mo.) and ^33P ATP (specific activity 0.01 μCi/μL final; Perkin Elmer, Waltham, Mass.) to a final concentration of 10 μM to initiate the reaction. Reactions were carried out at RT for 120 min, followed by spotting of the reactions onto P81 ion exchange filter paper (Whatman #3698-915; Whatman Inc., Piscataway, N.J.). Unbound phosphate was removed by extensive washing of filters in 0.75% phosphoric acid. […] The percent of enzyme inhibition was calculated based on the percent of remaining kinase activity. IC50 values were determined.

activated IGF-1R = target: T3, activated IGF-1R (Homo sapiens, UniProt P08069); test: In vitro IGF-1R enzymatic assay (ADP-Glo); details: ATP 100 μM
T3 construct: purchased Millipore 14-802
T3 sequence (P08069 31-1367): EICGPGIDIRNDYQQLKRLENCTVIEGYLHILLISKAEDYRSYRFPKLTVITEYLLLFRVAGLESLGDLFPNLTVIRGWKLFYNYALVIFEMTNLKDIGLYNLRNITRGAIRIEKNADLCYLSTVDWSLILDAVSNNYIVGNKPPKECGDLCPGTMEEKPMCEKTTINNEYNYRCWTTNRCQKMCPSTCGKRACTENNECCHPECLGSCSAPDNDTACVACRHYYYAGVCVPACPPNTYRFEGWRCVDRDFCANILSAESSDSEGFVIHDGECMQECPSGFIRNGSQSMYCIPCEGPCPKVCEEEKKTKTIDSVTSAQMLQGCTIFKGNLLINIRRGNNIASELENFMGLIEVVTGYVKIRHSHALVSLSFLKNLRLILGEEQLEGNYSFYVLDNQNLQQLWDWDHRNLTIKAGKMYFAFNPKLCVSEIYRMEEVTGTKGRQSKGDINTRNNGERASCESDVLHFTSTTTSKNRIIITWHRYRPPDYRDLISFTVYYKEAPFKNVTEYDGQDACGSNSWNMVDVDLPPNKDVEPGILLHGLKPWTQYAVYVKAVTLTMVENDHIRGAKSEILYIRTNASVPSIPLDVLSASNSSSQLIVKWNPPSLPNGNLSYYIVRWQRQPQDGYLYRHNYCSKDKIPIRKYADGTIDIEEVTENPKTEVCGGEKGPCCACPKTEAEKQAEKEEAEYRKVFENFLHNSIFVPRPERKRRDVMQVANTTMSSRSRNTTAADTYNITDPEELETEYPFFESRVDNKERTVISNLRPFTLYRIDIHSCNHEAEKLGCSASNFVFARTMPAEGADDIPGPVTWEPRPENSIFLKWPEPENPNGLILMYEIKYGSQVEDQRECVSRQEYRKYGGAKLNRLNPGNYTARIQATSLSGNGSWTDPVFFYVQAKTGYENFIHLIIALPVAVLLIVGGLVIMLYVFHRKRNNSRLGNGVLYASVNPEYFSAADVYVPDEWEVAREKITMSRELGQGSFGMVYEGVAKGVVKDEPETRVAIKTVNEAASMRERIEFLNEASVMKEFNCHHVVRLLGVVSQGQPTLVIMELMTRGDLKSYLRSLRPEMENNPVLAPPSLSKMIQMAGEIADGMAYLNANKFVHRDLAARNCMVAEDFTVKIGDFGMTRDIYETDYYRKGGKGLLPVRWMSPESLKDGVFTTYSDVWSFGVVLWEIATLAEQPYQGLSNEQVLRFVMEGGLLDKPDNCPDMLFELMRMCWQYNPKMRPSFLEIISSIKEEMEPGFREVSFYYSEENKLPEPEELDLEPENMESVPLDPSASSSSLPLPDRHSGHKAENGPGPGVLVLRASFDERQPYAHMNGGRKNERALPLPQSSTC
Experimental: as §1, §2

ABL1 = ABL1 (Homo sapiens, UniProt P00519); test: HotSpot kinase assay against ABL1; details: HotSpot 33P assay, ATP 10 μM-30 μM
Chain of ABL1 (P00519 whole entry): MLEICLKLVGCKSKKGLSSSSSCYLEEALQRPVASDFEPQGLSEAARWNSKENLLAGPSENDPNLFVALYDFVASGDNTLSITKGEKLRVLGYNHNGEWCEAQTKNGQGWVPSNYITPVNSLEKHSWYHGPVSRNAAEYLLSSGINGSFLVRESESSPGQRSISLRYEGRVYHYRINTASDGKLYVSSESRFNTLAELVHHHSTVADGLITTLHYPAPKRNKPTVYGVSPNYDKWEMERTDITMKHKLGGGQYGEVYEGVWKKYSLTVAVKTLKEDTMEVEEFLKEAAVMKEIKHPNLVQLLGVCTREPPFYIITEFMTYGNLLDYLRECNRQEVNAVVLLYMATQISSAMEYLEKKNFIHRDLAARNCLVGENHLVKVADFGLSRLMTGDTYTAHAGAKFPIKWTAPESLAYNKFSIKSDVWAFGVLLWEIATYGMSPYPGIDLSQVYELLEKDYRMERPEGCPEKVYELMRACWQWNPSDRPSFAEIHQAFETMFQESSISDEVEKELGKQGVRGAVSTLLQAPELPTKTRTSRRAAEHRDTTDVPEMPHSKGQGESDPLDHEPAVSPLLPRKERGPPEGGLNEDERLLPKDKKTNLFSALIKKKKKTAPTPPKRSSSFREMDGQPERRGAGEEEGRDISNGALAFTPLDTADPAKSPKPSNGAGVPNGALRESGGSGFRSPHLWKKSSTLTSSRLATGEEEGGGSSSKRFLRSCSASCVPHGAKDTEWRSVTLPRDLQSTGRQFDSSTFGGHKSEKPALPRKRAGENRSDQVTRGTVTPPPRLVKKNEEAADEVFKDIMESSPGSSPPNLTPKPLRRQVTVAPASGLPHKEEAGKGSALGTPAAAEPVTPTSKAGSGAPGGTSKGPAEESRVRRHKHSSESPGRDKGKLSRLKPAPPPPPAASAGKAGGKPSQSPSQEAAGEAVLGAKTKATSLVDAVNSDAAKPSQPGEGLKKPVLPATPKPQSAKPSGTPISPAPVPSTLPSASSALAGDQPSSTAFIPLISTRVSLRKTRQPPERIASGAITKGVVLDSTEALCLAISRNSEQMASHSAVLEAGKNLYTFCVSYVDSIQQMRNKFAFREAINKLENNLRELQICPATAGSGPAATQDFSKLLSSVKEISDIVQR
Experimental: The screening was performed using the “HotSpot” assay platform. The assay measures the conversion of a peptide substrate to ^33P-labelled phosphorylated product. Briefly, specific kinase/substrate pairs along with required cofactors were prepared in reaction buffer. Specifically, the substrate was prepared in reaction buffer (20 mM Hepes, pH 7.5; 10 mM MgCl2; 1 mM EGTA; 0.02% Brij35; 0.02 mg/mL BSA; 0.1 mM Na3VO4; 2 mM DTT; 1% DMSO), followed by delivery of any required cofactor to the resulting substrate solution. The corresponding kinase was delivered into the substrate solution and the reaction mixture was mixed gently. Compound was delivered into the reaction mixture, followed 15-20 minutes later by addition of a mixture of ATP (Sigma, St. Louis Mo.) and ^33P ATP (specific activity 0.01 μCi/μL final; Perkin Elmer, Waltham, Mass.) to a final concentration of 10 μM-30 μM to initiate the reaction. Reactions were carried out at RT for 120 min, followed by spotting of the reactions onto P81 ion exchange filter paper (Whatman #3698-915; Whatman Inc., Piscataway, N.J.). Unbound phosphate was removed by extensive washing of filters in 0.75% phosphoric acid. […] The percent of enzyme inhibition was calculated based on the percent of remaining kinase activity. IC50 values and curve fits were obtained using Prism (GraphPad Software).

T1 sequence (P06213 28-1382): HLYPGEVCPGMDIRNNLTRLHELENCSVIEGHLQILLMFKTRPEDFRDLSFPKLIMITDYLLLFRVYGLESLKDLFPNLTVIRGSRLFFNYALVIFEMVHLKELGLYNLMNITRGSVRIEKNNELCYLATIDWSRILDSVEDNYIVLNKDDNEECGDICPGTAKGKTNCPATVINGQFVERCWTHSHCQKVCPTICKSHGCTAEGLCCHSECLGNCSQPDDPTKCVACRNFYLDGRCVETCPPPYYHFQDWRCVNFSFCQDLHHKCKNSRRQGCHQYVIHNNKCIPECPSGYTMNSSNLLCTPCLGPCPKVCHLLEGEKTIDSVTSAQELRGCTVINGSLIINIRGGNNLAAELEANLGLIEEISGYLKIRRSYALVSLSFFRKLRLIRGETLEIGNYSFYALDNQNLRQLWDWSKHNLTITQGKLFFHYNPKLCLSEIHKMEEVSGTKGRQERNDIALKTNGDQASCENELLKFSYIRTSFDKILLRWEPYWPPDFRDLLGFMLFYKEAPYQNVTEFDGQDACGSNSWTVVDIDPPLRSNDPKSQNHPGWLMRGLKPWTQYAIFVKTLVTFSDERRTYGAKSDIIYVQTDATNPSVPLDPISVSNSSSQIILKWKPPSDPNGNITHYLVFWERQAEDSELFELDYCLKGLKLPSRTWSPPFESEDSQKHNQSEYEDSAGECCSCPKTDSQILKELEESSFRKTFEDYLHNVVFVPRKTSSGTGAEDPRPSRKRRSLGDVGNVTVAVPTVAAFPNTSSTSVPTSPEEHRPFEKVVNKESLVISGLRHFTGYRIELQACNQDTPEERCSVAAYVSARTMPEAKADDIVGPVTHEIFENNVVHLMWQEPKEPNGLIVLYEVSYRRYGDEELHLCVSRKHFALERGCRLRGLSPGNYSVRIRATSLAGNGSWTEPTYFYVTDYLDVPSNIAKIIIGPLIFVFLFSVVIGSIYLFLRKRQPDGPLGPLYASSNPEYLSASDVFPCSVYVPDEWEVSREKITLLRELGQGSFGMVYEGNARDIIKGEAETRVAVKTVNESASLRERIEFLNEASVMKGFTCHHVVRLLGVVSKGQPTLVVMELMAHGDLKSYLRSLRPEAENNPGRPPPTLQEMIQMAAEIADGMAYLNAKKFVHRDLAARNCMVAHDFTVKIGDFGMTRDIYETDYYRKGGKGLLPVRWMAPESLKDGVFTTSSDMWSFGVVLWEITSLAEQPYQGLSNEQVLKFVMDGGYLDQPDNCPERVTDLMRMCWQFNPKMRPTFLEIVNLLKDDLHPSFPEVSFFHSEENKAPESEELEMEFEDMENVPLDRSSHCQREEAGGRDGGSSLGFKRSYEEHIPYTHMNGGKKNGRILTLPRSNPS

| IC50 (activated IR) | IC50 (FLT3) | IC50 (activated IGF-1R) | IC50 (ABL1) | inhibition at 1 µM (activated IR; compound 1 μM) | inhibition at 1 µM (activated IGF-1R; compound 1 μM) | Compound |
| --- | --- | --- | --- | --- | --- | --- |
| 0.364 µM | 0.112 µM | 0.243 µM | 0.316 µM | 77% | 84% | CC(C)c1cc(Nc2nc(N3CCC[C@H]3C(=O)N(C)c3nccs3)nc3c2CCC3)n[nH]1 [68b, (S)-1-(4-((5-isopropyl-1H-pyrazol-3-yl)amino)-6,7-dihydro-5H-cyclopenta[d]pyrimidin-2-yl)-N-methyl-N-(thiazol-2-yl)pyrrolidine-2-carboxamide] |
| 5.96 µM | > 1 µM | 10.3 µM | > 1 µM | – | – | CCN(C(=O)[C@@H]1CCCN1c1nc2c(c(Nc3cc(C(C)(C)C)[nH]n3)n1)CCC2)c1nccs1 [144b, (S)-1-(4-((5-(tert-butyl)-1 H-pyrazol-3-yl)amino)-6,7-dihydro-5H-cyclopenta[d]pyrimidin-2-yl)-N-ethyl-N-(thiazol-2-yl)pyrrolidine-2-carboxamide] |
| 0.67 µM | 0.155 µM | 0.47 µM | – | – | – | CCN(C(=O)[C@@H]1CCCN1c1nc2c(c(Nc3cc(C(C)C)[nH]n3)n1)CCC2)c1nccs1 [145b, (S)—N-ethyl-1-(4-((5-isopropyl-1H-pyrazol-3-yl)amino)-6,7-dihydro-5H-cyclopenta[d]pyrimidin-2-yl)-N-(thiazol-2-yl)pyrrolidine-2-carboxamide] |

Further lines, the compound ahead of its results:

| Compound | IC50 (activated IR) | IC50 (FLT3) | IC50 (activated IGF-1R) | IC50 (ABL1) | inhibition at 1 µM (activated IR; compound 1 μM) | inhibition at 1 µM (activated IGF-1R; compound 1 μM) |
| --- | --- | --- | --- | --- | --- | --- |
| CC1(C(=O)N2CCC(F)(F)CC2)CCCN1c1nc2c(c(Nc3cc(C4CCCC4)[nH]n3)n1)CCC2 (racemic) [compound 146, (1-(4-((5-cyclopentyl-1H-pyrazol-3-yl)amino)-6,7-dihydro-5H-cyclopenta[d]pyrimidin-2-yl)-2-methylpyrrolidin-2-yl)(4,4-difluoropiperidin-1-yl)methanone] | > 30 µM | 0.798 µM | > 30 µM | – | – | – |
| CC(C)(C)c1cc(Nc2nc(N3CCC[C@@H]3C(=O)N3CCC(F)(F)CC3)nc3c2CCC3)n[nH]1 [142a, (R)-(1-(4-((5-(tert-butyl)-1H-pyrazol-3-yl)amino)-6,7-dihydro-5H-cyclopenta[d]pyrimidin-2-yl)pyrrolidin-2-yl)(4,4-difluoropiperidin-1-yl)methanone] | 2.94 µM | > 1 µM | 4.85 µM | > 1 µM | – | – |
| CC(C)(C)c1cc(Nc2nc(N3CCC[C@H]3C(=O)N3CCC(F)(F)CC3)nc3c2CCC3)n[nH]1 [142b, (S)-(1-(4-((5-(tert-butyl)-1H-pyrazol-3-yl)amino)-6,7-dihydro-5H-cyclopenta[d]pyrimidin-2-yl)pyrrolidin-2-yl)(4,4-difluoropiperidin-1-yl)methanone] | 11.6 µM | > 1 µM | > 10 µM | > 1 µM | – | – |
| CCC(=O)N1CCN(C(=O)[C@H]2CCCN2c2nc3c(c(Nc4cc(C5CCCC5)[nH]n4)n2)CCC3)CC1 [143a, 1-(4-((4-((5-cyclopentyl-1H-pyrazol-3-yl)amino)-6,7-dihydro-5H-cyclopenta[d]pyrimidin-2-yl)-D-prolyl)piperazin-1-yl)propan-1-one] | 0.65 µM | 0.0139 µM | 0.74 µM | > 1 µM | – | – |
| CCC(=O)N1CCN(C(=O)[C@@H]2CCCN2c2nc3c(c(Nc4cc(C5CCCC5)[nH]n4)n2)CCC3)CC1 [143b, (S)-1-(4-((4-((5-cyclopentyl-1H-pyrazol-3-yl)amino)-6,7-dihydro-5H-cyclopenta[d]pyrimidin-2-yl)prolyl)piperazin-1-yl)propan-1-one] | 17.2 µM | 0.058 µM | > 30 µM | > 1 µM | – | – |
